Measurements taken from the NIST ThermoML archive (doi:10.1016/j.jct.2016.05.014).
Several values for one entry are separate records, joined by “and”; a condition that tells them apart may be missing. Identical values can stand only once. ± gives the expanded uncertainty stated by the source.

How the values were obtained:
[1] = Crystal
[2] = molar heat capacity at constant pressure; settings: 101.33 kPa, Crystal, Small sample (50 mg) DSC

Row | SMILES | mass density ([1]; 296 K, 101.33 kPa, X-ray diffraction) [kg/m3] | Normal melting temperature ([1]; visual observation) [°C] | molar heat capacity at constant pressure ([2]; 283.15 K) | molar heat capacity at constant pressure ([2]; 288.15 K) | molar heat capacity at constant pressure ([2]; 293.15 K) | molar heat capacity at constant pressure ([2]; 298.15 K) | molar heat capacity at constant pressure ([2]; 303.15 K) | molar heat capacity at constant pressure ([2]; 308.15 K) | molar heat capacity at constant pressure ([2]; 313.15 K) | molar heat capacity at constant pressure ([2]; 318.15 K) | molar heat capacity at constant pressure ([2]; 323.15 K) | molar heat capacity at constant pressure ([2]; 328.15 K) | molar heat capacity at constant pressure ([2]; 333.15 K)
1 | CCCCC(C#N)(Cn1cncn1)c1ccc(Cl)cc1 (centres undefined) | 1238 ± 6 | 70.30 ± 0.58 | 343.21 ± 9.5 J/K/mol and 340.09 ± 9.4 J/K/mol | 349.62 ± 9.7 J/K/mol and 349.73 ± 9.7 J/K/mol | 357.56 ± 9.9 J/K/mol and 356.25 ± 9.9 J/K/mol | 364.3 ± 10 J/K/mol and 362.78 ± 10 J/K/mol | 370.21 ± 10 J/K/mol and 369.3 ± 10 J/K/mol | 375.66 ± 10 J/K/mol and 375.82 ± 10 J/K/mol | 381.03 ± 11 J/K/mol and 382.35 ± 11 J/K/mol | 386.69 ± 11 J/K/mol and 388.87 ± 11 J/K/mol | 393.03 ± 11 J/K/mol and 395.39 ± 11 J/K/mol | 400.42 ± 11 J/K/mol and 401.92 ± 11 J/K/mol | 408.44 ± 11 J/K/mol and 409.23 ± 11 J/K/mol
2 | c1ccc2ccccc2c1 [naphthalene] | – | – | 158.4 ± 3.9 J/K/mol | 161.6 ± 4 J/K/mol | 164.8 ± 4.1 J/K/mol | 168 ± 4.2 J/K/mol | 171.2 ± 4.2 J/K/mol | 174.5 ± 4.3 J/K/mol | 177.8 ± 4.4 J/K/mol | 181.1 ± 4.5 J/K/mol | 184.5 ± 4.6 J/K/mol | 187.9 ± 4.7 J/K/mol | 191.3 ± 4.7 J/K/mol
